# Experimental data taken from article PMC7206119, “RIP1 inhibition blocks inflammatory diseases but not tumor growth or metastases” (Cell Death and Differentiation, 2019).
# Columns and labels:
# Test in all cases: biochemical
# Set-up in all cases: DiscoverX kinase panel, active-site competition binding (KINOMEscan type), percent of control at one concentration
# Details in all cases: competition binding, percent of control
# [1] = target: ULK3 (Homo sapiens, UniProt Q6PHR2)
# [2] = target: T1, ARK5 (Homo sapiens, UniProt O60285)
# T1 construct: gene NUAK1
# [3] = target: CIT (Homo sapiens, UniProt O14578)
# [4] = target: ANKK1 (Homo sapiens, UniProt Q8NFD2)
# [5] = target: PIM3 (Homo sapiens, UniProt Q86V86)
# [6] = target: MAP3K4 (Homo sapiens, UniProt Q9Y6R4)
# [7] = target: TAOK3 (Homo sapiens, UniProt Q9H2K8)
# [8] = target: FLT3(D835H) (Homo sapiens, UniProt P36888, D835H)
# [9] = target: TLK1 (Homo sapiens, UniProt Q9UKI8)
# [10] = target: MAP4K4 (Homo sapiens, UniProt O95819)
# [11] = target: CHEK1 (Homo sapiens, UniProt O14757)
# [12] = target: T2, RSK2(Kin.Dom.1-N-terminal) (Homo sapiens, UniProt P51812)
# T2 construct: gene RPS6KA3; Kin.Dom.1-N-terminal
# [13] = target: GSK3A (Homo sapiens, UniProt P49840)
# [14] = target: T3, PYK2 (Homo sapiens, UniProt Q14289)
# T3 construct: gene PTK2B
# [15] = target: WEE2 (Homo sapiens, UniProt P0C1S8)
# [16] = target: MAP4K3 (Homo sapiens, UniProt Q8IVH8)
# [17] = target: FLT3(D835Y) (Homo sapiens, UniProt P36888, D835Y)
# [18] = target: FLT3(ITD,D835V) (Homo sapiens, UniProt P36888, D835V/ITD)
# [19] = target: ROCK1 (Homo sapiens, UniProt Q13464)
# [20] = target: PDGFRA (Homo sapiens, UniProt P16234)
# [21] = target: T4, RSK3(Kin.Dom.2-C-terminal) (Homo sapiens, UniProt Q15349)
# T4 construct: gene RPS6KA2; Kin.Dom.2-C-terminal
# Sequence of WEE2 (P0C1S8 whole entry): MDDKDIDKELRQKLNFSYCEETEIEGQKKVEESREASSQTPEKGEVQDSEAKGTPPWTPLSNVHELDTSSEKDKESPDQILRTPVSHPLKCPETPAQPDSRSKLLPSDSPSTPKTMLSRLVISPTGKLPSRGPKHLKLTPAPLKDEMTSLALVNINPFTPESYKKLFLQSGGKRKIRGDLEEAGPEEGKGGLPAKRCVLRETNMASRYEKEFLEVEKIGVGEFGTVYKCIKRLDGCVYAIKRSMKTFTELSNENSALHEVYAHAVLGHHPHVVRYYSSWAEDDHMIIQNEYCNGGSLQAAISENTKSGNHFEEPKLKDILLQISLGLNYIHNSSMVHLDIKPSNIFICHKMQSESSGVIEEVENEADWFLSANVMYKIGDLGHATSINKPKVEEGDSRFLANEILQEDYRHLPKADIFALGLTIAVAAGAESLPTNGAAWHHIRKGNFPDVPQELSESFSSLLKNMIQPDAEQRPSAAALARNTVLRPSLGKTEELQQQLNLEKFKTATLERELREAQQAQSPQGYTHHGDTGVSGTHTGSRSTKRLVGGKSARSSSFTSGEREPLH
# T1 sequence (O60285 whole entry): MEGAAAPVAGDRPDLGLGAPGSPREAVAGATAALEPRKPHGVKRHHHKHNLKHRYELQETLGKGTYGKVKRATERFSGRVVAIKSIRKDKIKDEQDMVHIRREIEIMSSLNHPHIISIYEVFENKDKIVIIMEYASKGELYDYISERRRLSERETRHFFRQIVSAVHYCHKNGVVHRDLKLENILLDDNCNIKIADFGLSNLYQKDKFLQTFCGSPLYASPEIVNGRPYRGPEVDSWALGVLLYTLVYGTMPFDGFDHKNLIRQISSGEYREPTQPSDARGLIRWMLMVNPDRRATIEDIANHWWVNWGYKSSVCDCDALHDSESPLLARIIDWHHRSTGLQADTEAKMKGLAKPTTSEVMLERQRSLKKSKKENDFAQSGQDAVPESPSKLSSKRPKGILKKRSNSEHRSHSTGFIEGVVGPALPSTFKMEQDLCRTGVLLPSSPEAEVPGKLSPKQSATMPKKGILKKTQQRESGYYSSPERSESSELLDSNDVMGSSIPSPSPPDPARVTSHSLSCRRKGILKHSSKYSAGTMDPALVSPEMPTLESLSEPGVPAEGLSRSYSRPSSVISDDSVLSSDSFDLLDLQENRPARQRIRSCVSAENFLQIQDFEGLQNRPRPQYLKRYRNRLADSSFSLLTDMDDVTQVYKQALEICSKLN
# Sequence of MAP4K3 (Q8IVH8 whole entry): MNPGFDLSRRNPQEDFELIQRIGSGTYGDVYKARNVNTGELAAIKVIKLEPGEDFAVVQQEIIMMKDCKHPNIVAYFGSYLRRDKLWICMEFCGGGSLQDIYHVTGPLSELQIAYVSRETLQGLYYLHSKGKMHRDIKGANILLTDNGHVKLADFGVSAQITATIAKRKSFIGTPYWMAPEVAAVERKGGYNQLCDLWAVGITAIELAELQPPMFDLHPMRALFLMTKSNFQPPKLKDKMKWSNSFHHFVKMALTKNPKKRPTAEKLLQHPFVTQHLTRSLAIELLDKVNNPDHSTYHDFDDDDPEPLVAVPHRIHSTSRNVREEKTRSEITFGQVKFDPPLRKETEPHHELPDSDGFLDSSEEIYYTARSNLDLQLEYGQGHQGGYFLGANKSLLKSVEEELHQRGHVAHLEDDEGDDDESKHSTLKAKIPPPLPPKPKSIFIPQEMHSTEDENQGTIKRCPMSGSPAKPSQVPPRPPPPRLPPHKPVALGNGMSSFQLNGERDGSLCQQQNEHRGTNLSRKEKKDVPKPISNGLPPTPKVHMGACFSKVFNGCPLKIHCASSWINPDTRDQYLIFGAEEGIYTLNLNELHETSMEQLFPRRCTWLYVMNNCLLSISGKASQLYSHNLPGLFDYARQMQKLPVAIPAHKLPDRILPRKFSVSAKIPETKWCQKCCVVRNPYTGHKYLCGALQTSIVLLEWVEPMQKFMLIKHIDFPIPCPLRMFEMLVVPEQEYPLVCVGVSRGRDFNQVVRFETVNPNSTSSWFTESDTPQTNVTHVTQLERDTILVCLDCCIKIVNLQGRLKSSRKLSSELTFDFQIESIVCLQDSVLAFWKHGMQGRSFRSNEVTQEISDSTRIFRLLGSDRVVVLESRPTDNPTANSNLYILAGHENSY
# T3 sequence (Q14289 whole entry): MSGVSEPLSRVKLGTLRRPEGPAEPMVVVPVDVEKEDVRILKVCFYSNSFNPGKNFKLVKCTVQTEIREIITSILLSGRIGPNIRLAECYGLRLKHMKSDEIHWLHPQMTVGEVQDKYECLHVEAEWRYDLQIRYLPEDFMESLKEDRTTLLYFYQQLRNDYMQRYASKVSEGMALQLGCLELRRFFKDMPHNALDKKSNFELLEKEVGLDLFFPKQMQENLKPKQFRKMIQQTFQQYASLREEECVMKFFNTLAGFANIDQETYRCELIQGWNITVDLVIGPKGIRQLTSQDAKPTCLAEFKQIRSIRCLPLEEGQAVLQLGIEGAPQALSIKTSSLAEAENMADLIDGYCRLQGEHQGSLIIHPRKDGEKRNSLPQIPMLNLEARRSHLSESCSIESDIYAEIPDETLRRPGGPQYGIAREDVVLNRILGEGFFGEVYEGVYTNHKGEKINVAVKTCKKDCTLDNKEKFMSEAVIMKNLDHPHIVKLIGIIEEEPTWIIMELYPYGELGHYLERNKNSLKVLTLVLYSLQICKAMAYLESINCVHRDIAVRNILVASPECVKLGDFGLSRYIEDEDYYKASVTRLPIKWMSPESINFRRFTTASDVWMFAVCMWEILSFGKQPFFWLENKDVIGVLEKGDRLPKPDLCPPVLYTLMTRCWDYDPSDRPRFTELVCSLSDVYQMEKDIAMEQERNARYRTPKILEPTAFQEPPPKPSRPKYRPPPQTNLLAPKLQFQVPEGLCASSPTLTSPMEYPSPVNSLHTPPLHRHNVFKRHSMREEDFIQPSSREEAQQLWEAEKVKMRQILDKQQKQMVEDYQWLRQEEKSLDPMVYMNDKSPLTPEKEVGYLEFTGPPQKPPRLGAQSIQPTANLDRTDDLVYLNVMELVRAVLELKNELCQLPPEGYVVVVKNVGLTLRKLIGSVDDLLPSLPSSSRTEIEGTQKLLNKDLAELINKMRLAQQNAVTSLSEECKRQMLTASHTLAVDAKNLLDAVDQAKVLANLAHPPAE
# Sequence of GSK3A (P49840 whole entry): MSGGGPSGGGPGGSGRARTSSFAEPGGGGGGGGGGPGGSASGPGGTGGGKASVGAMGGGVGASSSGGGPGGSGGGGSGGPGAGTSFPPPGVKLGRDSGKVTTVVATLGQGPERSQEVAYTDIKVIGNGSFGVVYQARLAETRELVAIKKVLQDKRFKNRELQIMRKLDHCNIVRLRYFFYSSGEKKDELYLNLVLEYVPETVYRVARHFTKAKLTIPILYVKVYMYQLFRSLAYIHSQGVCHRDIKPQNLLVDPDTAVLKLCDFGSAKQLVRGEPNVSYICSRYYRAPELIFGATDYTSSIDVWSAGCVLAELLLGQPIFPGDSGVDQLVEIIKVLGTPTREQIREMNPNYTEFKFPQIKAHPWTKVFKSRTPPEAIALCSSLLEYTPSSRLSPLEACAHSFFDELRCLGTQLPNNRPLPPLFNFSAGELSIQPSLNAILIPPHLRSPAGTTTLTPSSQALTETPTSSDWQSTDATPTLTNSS
# Sequence of TAOK3 (Q9H2K8 whole entry): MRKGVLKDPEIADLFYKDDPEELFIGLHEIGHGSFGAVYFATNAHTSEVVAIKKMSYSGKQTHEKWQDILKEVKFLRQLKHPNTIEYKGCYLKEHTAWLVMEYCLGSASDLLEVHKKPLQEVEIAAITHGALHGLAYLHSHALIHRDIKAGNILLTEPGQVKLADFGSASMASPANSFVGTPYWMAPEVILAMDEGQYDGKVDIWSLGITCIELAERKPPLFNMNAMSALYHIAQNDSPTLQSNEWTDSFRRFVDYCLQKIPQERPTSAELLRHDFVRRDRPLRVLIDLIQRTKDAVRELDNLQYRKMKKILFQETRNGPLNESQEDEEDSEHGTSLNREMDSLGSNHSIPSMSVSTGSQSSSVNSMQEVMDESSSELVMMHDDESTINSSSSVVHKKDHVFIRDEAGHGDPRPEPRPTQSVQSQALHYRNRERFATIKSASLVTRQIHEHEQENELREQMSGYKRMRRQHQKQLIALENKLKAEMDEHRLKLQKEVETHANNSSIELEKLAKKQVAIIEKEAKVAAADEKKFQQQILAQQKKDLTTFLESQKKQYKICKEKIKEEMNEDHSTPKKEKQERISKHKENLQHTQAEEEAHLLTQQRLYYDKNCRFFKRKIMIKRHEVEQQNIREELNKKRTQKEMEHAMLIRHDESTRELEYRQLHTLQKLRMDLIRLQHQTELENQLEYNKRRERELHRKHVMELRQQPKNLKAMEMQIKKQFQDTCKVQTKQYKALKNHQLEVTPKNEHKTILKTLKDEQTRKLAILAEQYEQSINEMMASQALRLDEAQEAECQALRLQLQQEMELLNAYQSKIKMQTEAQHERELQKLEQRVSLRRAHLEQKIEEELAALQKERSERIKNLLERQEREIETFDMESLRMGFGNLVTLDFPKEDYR
# Sequence of ULK3 (Q6PHR2 whole entry): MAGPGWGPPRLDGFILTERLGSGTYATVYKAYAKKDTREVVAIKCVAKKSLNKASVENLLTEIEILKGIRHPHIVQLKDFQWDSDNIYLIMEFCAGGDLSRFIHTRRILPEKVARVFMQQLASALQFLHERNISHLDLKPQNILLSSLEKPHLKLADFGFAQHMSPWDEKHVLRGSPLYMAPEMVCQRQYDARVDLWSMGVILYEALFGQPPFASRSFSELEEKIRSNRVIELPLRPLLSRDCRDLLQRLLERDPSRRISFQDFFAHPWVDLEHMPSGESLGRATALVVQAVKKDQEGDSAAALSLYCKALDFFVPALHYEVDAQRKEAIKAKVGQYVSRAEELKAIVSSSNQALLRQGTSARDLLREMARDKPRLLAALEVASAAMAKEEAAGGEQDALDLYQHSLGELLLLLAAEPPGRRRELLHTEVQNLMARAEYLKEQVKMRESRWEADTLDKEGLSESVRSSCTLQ
smiles,measurement,setting,value
"COc1cc2c(cn1)N(C)C(=O)[C@@H](NC(=O)c1nc3n(n1)[C@H](c1ccccc1)CC3)CC2 [GNE684, (S)-N-((S)-7-methoxy-1-methyl-2-oxo-2,3,4,5-tetrahydro-1H-pyrido[3,4-b]azepin-3-yl)-5-phenyl-6,7-dihydro-5H-pyrrolo[1,2-b][1,2,4]triazole-2-carboxamide]",remaining binding at 10 µM,[1],100%
same,remaining binding at 10 µM,[2],94%
same,remaining binding at 10 µM,[3],100%
same,remaining binding at 10 µM,[4],98%
same,remaining binding at 10 µM,[5],100%
same,remaining binding at 10 µM,[6],92%
same,remaining binding at 10 µM,[7],60%
same,remaining binding at 10 µM,[8],94%
same,remaining binding at 10 µM,[9],97%
same,remaining binding at 10 µM,[10],73%
same,remaining binding at 10 µM,[11],100%
same,remaining binding at 10 µM,[12],65%
same,remaining binding at 10 µM,[13],63%
same,remaining binding at 10 µM,[14],92%
same,remaining binding at 10 µM,[15],95%
same,remaining binding at 10 µM,[16],99%
same,remaining binding at 10 µM,[17],100%
same,remaining binding at 10 µM,[18],84%
same,remaining binding at 10 µM,[19],100%
same,remaining binding at 10 µM,[20],100%
same,remaining binding at 10 µM,[21],98%
